For this assay, the system named is pERK in HCT-116 cells (KRAS G13D). Nature of the assay: Phospho-ERK inhibition (AlphaLISA SureFire Ultra p-ERK 1/2), HCT116. Type of assay: cell-based, human. Particulars: HCT116 cells. Here is the method:
All cancer cell lines (A375, A101D, A2058, RKO, HT29 SK-MEL 30, IPC298, HepG2, HCT-116, Lovo, SWV620, SW480, NCI-H358, NCI-H2122, Calu-6, NCIH2087, NCIH1755, NCIH1666 and Mewo) were obtained from ATCC and cultured in RPMI-1640 medium (Gibco) supplemented with 5% heat inactivated fetal bovine serum (FBS, Wisent) at 37° C. under 5% CO2. Cells were maintained in T175 flasks (Greiner). They were passaged by removing the culture medium, washing once in 10 mL of room temperature Phosphate Buffered Saline (PBS; Wisent) and incubating at 37° C. with 2 mL of 0.05% Trypsin (Thermo-Fisher). Trypsin was then inactivated by adding complete growth medium and the cells were then replated in a T175 culture dish at the appropriate dilution. All cell lines were routinely tested for mycoplasma contamination. Tissue type and mutational status of each cell line can be found in Table B.
AlphaLISA® SureFire® Ultra™ p-ERK 1/2 (Thr202/Tyr204) analysis was conducted on cells plated in 100 μL of complete RPMI-1640 growth medium in 96-well flat-bottomed transparent dishes (Costar) at a density indicated in Table C. Cells were maintained overnight at 37° C. under 5% CO2 before treatment with compounds' dilution series for one hour. The cell density in cells/cm^2 corresponds to cell number divided by the area of one well of a 96-well plate ([…]).
In a dilution series 100 μL/well of test substance dilution prepared in complete RPMI-1640 growth media was added to the cells. The dilution series is selected so that ten concentrations cover a range from 10 μM to 0.33 nM. If necessary the initial concentration of 10 μM is increased to 100 μM or lowered to 1 μM (as in the case of A375 and H1666 cells, which are generally more sensitive to the compounds) and further dilution is carried out accordingly. The final concentration of DMSO in the assay is set at 0.5%.
After treatment, media was removed and cells were lysed in 50 μL of 1× AlphaScreen Ultra Lysis Buffer (Perkin Elmer). The AlphaLISA® SureFire® Ultra™ p-ERK 1/2 (Thr202/Tyr2O4) (PerkinElmer) reactions were performed with 5 μL of cell lysate according to the manufacturer's specifications in 384-well proxyplates (Perkin Elmer) followed by overnight incubation of the reactions at room temperature in a humidified chamber. After completion of the reactions, the signals were recorded on an EnVision plate reader (Perkin Elmer) using built in AlphaLISA® settings.
The effect of each compound dilution on the pERK signal was expressed in % inhibition and calculated as follows. An internal 100% inhibition control ([…] trametinib, cat #HY-10999; MedChem Express; CAS #871700-17-3) was included in each plate and used as a measure of pERK background. First, the value obtained for trametinib was subtracted from each data point. The average of DMSO (vehicle) controls (set as 0% inhibition) was established and used to calculate % inhibition: % inhibition=100*(1-((pERK signalcompound)/(pERK signalDMSO)))
The ability of each compound to inhibit pERK signal was expressed as an IC50 value obtained by plotting the inhibition values for each data point of a dilution series and fitting the obtained curves using a log(agonist) versus response-variable slope (four parameters) function using GraphPadPrism (V7.0) or Dotmatics Screening Ultra platform.
When present, paradoxical pERK induction is inferred from the negative % inhibition values observed in the pERK IC50 curves of a compound.

With `CN(C)CC(C)(C)S(=O)(=O)c1cn(-c2ccc3ncnc(Nc4c(F)ccc(NS(=O)(=O)c5cccc(Cl)c5Cl)c4F)c3n2)c2ccccc12` [Example 456], the half-inhibitory concentration (IC50) (class symbol) is less than 500 nM.

Consider `CC(C)(CO)S(=O)(=O)c1cn(-c2ccc3ncnc(Nc4c(F)ccc(NS(=O)(=O)c5cccc(Cl)c5Cl)c4F)c3n2)c2ccccc12` [Example 447], for which, under “class symbol”, the IC50 is less than 500 nM.

Regarding `O=S(=O)(Nc1ccc(F)c(Nc2ncnc3ccc(-n4cc(S(=O)(=O)N5CCN(c6ccccn6)CC5)c5ccccc54)nc23)c1F)c1cccc(Cl)c1Cl` [Ex 377], the IC50 (class symbol) is 500 to 1000 nM.

`CCN1CCN(S(=O)(=O)c2cn(-c3ccc4ncnc(Nc5c(F)ccc(NS(=O)(=O)c6cccc(Cl)c6Cl)c5F)c4n3)c3ccccc23)CC1` [Ex 388] registered an IC50 (class symbol) of less than 500 nM.

Regarding `CN(C)CCCS(=O)(=O)c1cn(-c2ccc3ncnc(Nc4c(F)ccc(NS(=O)(=O)c5cccc(Cl)c5Cl)c4F)c3n2)c2ccccc12` [Example 484], the IC50 (class symbol) was less than 500 nM.

Consider `Cc1c(F)cccc1S(=O)(=O)Nc1ccc(F)c(Nc2ncnc3ccc(-n4cc5c(n4)CCCN5C(=O)CN)nc23)c1F` [Example 392], for which the half-inhibitory concentration (IC50) (class symbol) was 1000 to 10000 nM.

For the compound `CC(C)N1CCC(S(=O)(=O)c2cn(-c3ccc4ncnc(Nc5c(F)ccc(NS(=O)(=O)c6cccc(Cl)c6Cl)c5F)c4n3)c3ccccc23)CC1` [Example 468], the half-inhibitory concentration (IC50) (class symbol) is less than 500 nM.

In turn, `COCCOc1nccc2c1ncn2-c1ccc2ncnc(Nc3c(F)ccc(NS(=O)(=O)c4cccc(Cl)c4Cl)c3F)c2n1` [Example 522] returned a half-maximal inhibitory concentration (IC50) (class symbol) of 500 to 1000 nM.

`Cc1c(F)cccc1S(=O)(=O)Nc1ccc(F)c(Nc2ncnc3ccc(-n4ncc5c4CN(CCO)CC5)nc23)c1F` [Example 339] had a half-maximal inhibitory concentration (IC50) (class symbol) of less than 500 nM.

As to `CN1CCCN(S(=O)(=O)c2cn(-c3ccc4ncnc(Nc5c(F)ccc(NS(=O)(=O)c6cccc(Cl)c6Cl)c5F)c4n3)c3ccccc23)CC1` [Ex 436], the IC50 (class symbol) was less than 500 nM.

Consider `O=S(=O)(Nc1ccc(F)c(Nc2ncnc3ccc(-n4cc(N5CCCCS5(=O)=O)c5ccccc54)nc23)c1F)c1cccc(Cl)c1Cl` [Example 514], for which the IC50 (class symbol) was less than 500 nM.

For the compound `Cc1c(F)cccc1S(=O)(=O)Nc1ccc(F)c(Nc2ncnc3ccc(-n4ccc(C(=O)N(C)Cc5ccncc5)n4)nc23)c1F` [Example 334], under “class symbol”, the 50% inhibitory concentration (IC50) is less than 500 nM.

`O=S(=O)(Nc1ccc(F)c(Nc2ncnc3ccc(-n4cc(S(=O)(=O)C5CCNCC5)c5ccccc54)nc23)c1F)c1cccc(Cl)c1Cl` [Example 465]: the IC50 (class symbol) lay within 500 to 1000 nM.

With `Cc1c(F)cccc1S(=O)(=O)Nc1ccc(F)c(Nc2ncnc3ccc(-n4cc5c(n4)CCCN5CCN)nc23)c1F` [Example 362], the half-maximal inhibitory concentration (IC50) (class symbol) was in the range of 1000 to 10000 nM.

In the case of `COc1cccc2c1ncn2-c1ccc2ncnc(Nc3c(F)ccc(NS(=O)(=O)c4cccc(Cl)c4Cl)c3F)c2n1` [Ex 449], the half-maximal inhibitory concentration (IC50) (class symbol) is less than 500 nM.

`Cc1c(F)cccc1S(=O)(=O)Nc1ccc(F)c(Nc2ncnc3ccc(-n4cc5c(n4)CCCN5CCCO)nc23)c1F` [Example 391] had a concentration for half-maximal inhibition (IC50) (class symbol) of 1000 to 10000 nM.

Where the note is “class symbol”, `CC(C)(O)CCNS(=O)(=O)c1cn(-c2ccc3ncnc(Nc4c(F)ccc(NS(=O)(=O)c5cccc(Cl)c5Cl)c4F)c3n2)c2ccccc12` [Ex 453] returned a half-inhibitory concentration (IC50) of less than 500 nM.

Regarding `O=S(=O)(Nc1ccc(F)c(Nc2ncnc3ccc(-n4cnc5c(Cl)cccc54)nc23)c1F)c1cccc(Cl)c1Cl` [Ex 462], for the setting “class symbol”, the IC50 is less than 500 nM.

`CN(CCc1ccccn1)C(=O)c1nn(-c2ccc3ncnc(Nc4c(F)ccc(NS(=O)(=O)c5cccc(Cl)c5Cl)c4F)c3n2)c2ccccc12` [Ex 370] yielded an IC50 (class symbol) of less than 500 nM.

Where the note is “class symbol”, `Cc1c(F)cccc1S(=O)(=O)Nc1ccc(F)c(Nc2ncnc3ccc(-n4cnc5c(-c6cnccc6N)cccc54)nc23)c1F` [Example 420] had a half-maximal inhibitory concentration (IC50) of 1000 to 10000 nM.

`O=S(=O)(Nc1ccc(F)c(Nc2ncnc3ccc(-n4cc(S(=O)(=O)C5CCN(C6CCC6)CC5)c5ccccc54)nc23)c1F)c1cccc(Cl)c1Cl` [Example 470] had a half-inhibitory concentration (IC50) (class symbol) of less than 500 nM.

For the compound `CCN(C)Cc1cccc2c1ncn2-c1ccc2ncnc(Nc3c(F)ccc(NS(=O)(=O)c4ccccc4Cl)c3F)c2n1` [Ex 221], under “Ymin in brackets”, the “HCT116 pERK Ymin %” value is listed as −5%. Also, where the note is “class symbol before the bracket”, the half-inhibitory concentration (IC50) was 500 to 1000 nM.

Turning to `Cc1c(F)cccc1S(=O)(=O)Nc1ccc(F)c(Nc2ncnc3ccc(-n4cnc5c(-c6cccnc6N)cccc54)nc23)c1F` [Example 424], the IC50 (class symbol) was less than 500 nM.

Where the note is “class symbol”, `Cc1c(F)cccc1S(=O)(=O)Nc1ccc(F)c(Nc2ncnc3ccc(-n4cnc5c(CC#N)cccc54)nc23)c1F` [Example 361] gave an IC50 of less than 500 nM.

In the case of `O=S(=O)(Nc1ccc(F)c(Nc2ncnc3ccc(-n4cc(S(=O)(=O)N5CC6COCC6C5)c5ccccc54)nc23)c1F)c1cccc(Cl)c1Cl` (stereo not shown) [Ex 451], the IC50 (class symbol) is less than 500 nM.

For the compound `CN(C)CCN(C)S(=O)(=O)c1cn(-c2ccc3ncnc(Nc4c(F)ccc(NS(=O)(=O)c5cccc(Cl)c5Cl)c4F)c3n2)c2ccc(F)cc12` [Example 444], the IC50 (class symbol) is less than 500 nM.

The compound `O=[N+]([O-])c1cn(-c2ccc3ncnc(Nc4c(F)ccc(NS(=O)(=O)c5cccc(Cl)c5Cl)c4F)c3n2)c2ccccc12` [Example 506] registered a half-inhibitory concentration (IC50) (class symbol) of 1000 to 10000 nM.

Consider `O=S(=O)(Nc1ccc(F)c(Nc2ncnc3ccc(-n4cc(-c5ccccc5)nn4)nc23)c1F)c1cccc(Cl)c1Cl` [Example 534], for which the IC50 (class symbol) was less than 500 nM.

Consider `CC(=O)N1CCc2cnn(-c3ccc4ncnc(Nc5c(F)ccc(NS(=O)(=O)c6cccc(F)c6C)c5F)c4n3)c2C1` [Example 393], for which the IC50 (class symbol) lay in the range of 500 to 1000 nM.

Compound `Cc1c(F)cccc1S(=O)(=O)Nc1ccc(F)c(Nc2ncnc3ccc(-n4cc5c(n4)CCCN5CCO)nc23)c1F` [Example 340] had an IC50 (class symbol) of less than 500 nM.

With `Cc1cc([N+](=O)[O-])ccc1S(=O)(=O)Nc1ccc(F)c(Nc2ncnc3ccc(-n4cnc5c(N)cccc54)nc23)c1F` [Ex 368], for the setting “class symbol”, the half-maximal inhibitory concentration (IC50) is 1000 to 10000 nM.

The compound `O=S(=O)(Nc1ccc(F)c(Nc2ncnc3ccc(-n4cc(S(=O)(=O)C5CCN(CC6CC6)CC5)c5ccccc54)nc23)c1F)c1cccc(Cl)c1Cl` [Example 469] gave an IC50 (class symbol) of less than 500 nM.

In the case of `CCC(=O)c1cn(-c2ccc3ncnc(Nc4c(F)ccc(NS(=O)(=O)c5cccc(Cl)c5Cl)c4F)c3n2)c2ccccc12` [Ex 471], the IC50 (class symbol) lay in the range of 1000 to 10000 nM.

Take `CCOc1cccc2c1ncn2-c1ccc2ncnc(Nc3c(F)ccc(NS(=O)(=O)c4cccc(Cl)c4Cl)c3F)c2n1` [Example 525]: the IC50 (class symbol) was in the range of 500 to 1000 nM.

The compound `O=S(=O)(CC1CCCO1)c1cn(-c2ccc3ncnc(Nc4c(F)ccc(NS(=O)(=O)c5cccc(Cl)c5Cl)c4F)c3n2)c2ccccc12` (stereo not shown) [Ex 441] returned a concentration for half-maximal inhibition (IC50) (class symbol) of 500 to 1000 nM.

In the case of `CP(C)(=O)c1cn(-c2ccc3ncnc(Nc4c(F)ccc(NS(=O)(=O)c5cccc(Cl)c5Cl)c4F)c3n2)c2ccccc12` [Example 472], for the setting “class symbol”, the half-inhibitory concentration (IC50) is 1000 to 10000 nM.

Consider `CC(C)(CC(F)F)S(=O)(=O)c1cn(-c2ccc3ncnc(Nc4c(F)ccc(NS(=O)(=O)c5cccc(Cl)c5Cl)c4F)c3n2)c2ccccc12` [Example 499], for which the half-inhibitory concentration (IC50) (class symbol) was less than 500 nM.

`O=S(=O)(Nc1ccc(F)c(Nc2ncnc3ccc(-n4cc(S(=O)(=O)N5CCN(C6CCCCC6)CC5)c5ccccc54)nc23)c1F)c1cccc(Cl)c1Cl` [Ex 380] gave an IC50 (class symbol) of 1000 to 10000 nM.

On to `O=S(=O)(CC1CCOCC1)c1cn(-c2ccc3ncnc(Nc4c(F)ccc(NS(=O)(=O)c5cccc(Cl)c5Cl)c4F)c3n2)c2ccccc12` [Ex 442], for which the half-inhibitory concentration (IC50) (class symbol) is less than 500 nM.

For the setting “class symbol”, `Cc1c(F)cccc1S(=O)(=O)Nc1ccc(F)c(Nc2ncnc3ccc(-n4ncc5c4CN(CCN)CC5)nc23)c1F` [Example 415] returned an IC50 of 500 to 1000 nM.

Turning to `Cc1c(F)cccc1S(=O)(=O)Nc1ccc(F)c(Nc2ncnc3ccc(-n4ncc5c4CCCN5C)nc23)c1F` [Example 460], for the setting “class symbol”, the IC50 lay in the range of 1000 to 10000 nM.

With `Cc1c(F)cccc1S(=O)(=O)Nc1ccc(F)c(Nc2ncnc3ccc(-n4cnc5c(C#N)cccc54)nc23)c1F` [Example 329], the IC50 (class symbol) is 1000 to 10000 nM.

For the origin of these results see patent US12139488B2, “Pyrido[3,2-d]pyrimidine compounds uses thereof for treating a proliferative disease” (Universite de Montreal, priority 2021, dated 2024).
